# Tests used:
# [1] = Closure of 3 mm corneal wounds by impregnated gelatin sheets, Seidel test under rising intraocular pressure; set-up: species or system porcine; conditions: about 100-μm gelatin sheet (50% gelatin, 300 mM sucrose) impregnated with rose bengal 1.5 mM (light pipe 3 min), glyceraldehyde 0.2 M (no illumination) or riboflavin 0.1% (UV 370 nm); average±standard deviation
# Protocol: Gelatin blocks were prepared by the following method: Gelatin (300 Blooms, Sigma, St. Louis, Mo.) was dissolved in Minimal Essential Medium (MEM, Gibco, Grand Island, N.Y.), 300 mM sucrose was added and the solution was sterilized with gamma irradiation (2.7 Megarads). Addition of 300 mM sucrose maintained the gelatin sheets in a solid phase at temperatures below 37° C. and allowed the gelatin sheet to melt within minutes at body temperature once the gelatin sheet were placed over the wound. Gelatin blocks were prepared at a concentration of about 50% (weight/volume of MEM), which were firm enough to manipulate during the surgery by the surgeon. These gelatin blocks have rigidity of 300 blooms. Once the gelatin/sucrose solution in MEM was sterilized, the solution was poured into 35-mm tissue culture dish (Falcon #3001, Becton Dickinson, Lincoln Park, N.J.) and allowed to cool for 15 minutes to solidify at room temperature. […]
# Rose bengal was activated with an endoilluminator light pipe for 3 minutes. […] After each elevation, the treated wound was checked for the presence of any possible wound leak with the Seidel test, and the highest intraocular pressure at which the wound remained intact was recorded. This experiment was repeated three times on three different occasions and the results were calculated as average±standard deviation. […]
# [2] = Attachment strength of photo-melded inner collagenous layer explants in a buoyancy chamber; set-up: species or system human; conditions: for Attachment strength: 35 mW light at 40 mm
# Protocol: Bruch's membrane explants were harvested from cadaver eyes. RPE-Bruch's membrane-Choroid complexes were dissected out under a microscope; washed with PBS three times and kept in 0.02N ammonium hydroxide for 30 minutes to lyse all cellular components. Three cycles of PBS washing followed by removal of the basal lamina mechanically as described before. Briefly, a full thickness circumferential incision was made posterior to the ora serrata and the anterior segment and vitreous were removed carefully. The posterior pole of each eye cup was inspected visually with direct and retroillumination under a dissecting microscope and globes were discarded if there was any evidence of subretinal blood, previous surgery or any extensive structural or vascular alteration of the posterior segment due to a disease process, such as proliferative diabetic retinopathy or proliferative vitreoretinopathy. The eyecups were put in carbon dioxide-free Media (Gibco) and a scleral incision was made 3 mm from the limbus and extended circumferentially. Four radial incisions were then made and the sclera was peeled away. […] The choroid-Bruch's membrane-RPE complex was then carefully peeled towards the optic disc and removed after trimming its attachment to the optic nerve. Native RPE were removed by bathing the explant with 0.02 N ammonium hydroxide in a 50-mm polystyrene Petri dish (Falcon, Becton Dickinson, Lincoln Park, N.J.) for 20 minutes at room temperature followed by washing three times in phosphate-buffered saline (PBS). The Bruch's membrane explant from the fellow eye was prepared by removing the RPE with 0.02N ammonium hydroxide as described above. The Bruch's membrane explant was then floated in CFM over a 12-18 micron thick hydrophilic polycarbonate-polyvinylpyrrolidone membrane with 0.4 micron pores (Millipore, Bedford, Mass.) with the basal lamina facing towards the membrane. The curled edges were flattened from the choroidal side with fine forceps without touching Bruch's membrane. Four percent agarose (Sigma Chemical Co., St. Louis, Mo.) was poured on the Bruch's membrane-choroid complex from the choroidal side and the tissue was kept at 4° C. for 2-3 minutes to solidify the agarose. The hydrophilic membrane was peeled off along with the basal lamina of the RPE thus exposing the bare inner collagenous layer. 6 mm circular buttons were then trephined from peripheral Bruch's membrane on a Teflon sheet and placed on 4% agarose at 37° C. in non-treated polystyrene wells of a 96 well plate (Corning Costar Corp., Cambridge, Mass.). The agarose solidified within 2-3 minutes at room temperature, thus stabilizing the Bruch's membrane explant. The wells were gently rinsed with PBS three times for 5 minutes, gamma sterilized (20,000 rads) and then stored at 4° C. Explants with exposed ICL were then cut with a 6-mm trephine and stored in sterile PBS after gamma sterilization at 20,000 rads. At the time of use ICL surface was painted with rose bengal (at concentrations as provided in FIG. 2) and two patches were faced to each other at their ICL surface. Extra fluid was removed with a Whatman #30 filter paper and the two surfaces were apposed. […] Exposure time was limited to three minutes not to exceed photo-toxicity thresholds. […] Exposed inner collagenous layers were painted with rose bengal and photo-[…] to each other by photo-exciting rose bengal with a white light source. The light intensity matched the vitrectomy endo illuminator and exposure was limited to 3 minutes to avoid retinal photo-toxicity. […] Attached grafts were kept under 0.21 mN (milliNewtons) of constant traction for 3 days to test the stability of the […] process.
# [3] = tested on: photo receptor cells (PRC), choriocapillaris (CC) and RPE cells; experiment: Live-Dead cell viability immediately after photo-melding conditions; type: cell-based; conditions: control PBS
# Protocol: Cellular viability of photo receptor cells (PRC), choriocapillaris (CC) and RPE cells were determined with the Live-Dead assay (Molecular Probes, Portland, Oreg.) to determine the safety of the photo-melding procedure. Human cadaver eyes were obtained from an eye bank. Anterior segments were removed and sensory retina and RPE-CC complex were dissected out. Tissue samples of 6-mm size were cut from each layer and placed in 1.5 mM and 10 mM rose bengal solution. Using similar parameters photo-melding conditions were mimicked. Viability was assessed immediately after exposure. Samples exposed to similar lighting conditions in PBS were taken as control.
# PRC, CC and RPE cells = experiment: Live-Dead cell viability after photo-melding of Bruch's membrane patch graft in eyecup followed by ambient light; type: cell-based, human; conditions: 1.5 mM rose bengal; 6 hours ambient light at room temperature
# Protocol: In order to assess the additive effect of subsequent ambient light on cell toxicity anterior segments of three eyecups were removed and a 20-D PMMA PC IOL was sutured into the ciliary sulcus. Sensory retina was carefully lifted off and foveal RPE cells were removed mechanically. Exposed Bruch's membrane was intentionally damaged and a 6-mm Bruch's membrane patch graft photo-melded by photo-exciting 1.5 mM of rose bengal through sensory retina. After the photo-melding procedure, the eyecup was maintained at room temperature for 6 hours exposed to ambient light. At the end of this period cellular viability was assessed with Live-Dead assay. Again, PBS treated eyes served as control.
# [4] = TEM and SEM ultrastructure of photo-melded Bruch's membrane explants; conditions: 0.1 to 20 mM tested
# Protocol: Bruch's membrane explants were photo-melded with varying concentrations of rose bengal, ranging from 0.1 to 20 mM. Transmission electron microscopy (TEM) and scanning electron microscopy (SEM). […] At this concentration, cross linked collagen fibers twisted onto themselves and formed macro bundles. At concentrations higher that 1.5 mM, attenuation of individual collagen fibers and frequent breaks lead to the disruption of collagen framework resulting in hollow spaces at 10 and 20 mM concentrations. Starting from 0.1 mM concentration, the number of electron-dense collagen fibers increased as the concentration of rose bengal increased, possibly due to increased oxidation and subsequent better attraction of positively charged lead and osmium on the collagen fiber. At concentrations higher than 10 mM electron dense haze started to accumulate around the collagen debris.
SMILES,Highest intraocular pressure at which the wound remained intact [1] [mmHg],"Attachment strength ([2]; 1.5 mM rose bengal, 3 min) [N/m^2]","Attachment strength ([2]; 5 mM rose bengal, 3 min) [N/m^2]","Attachment strength ([2]; 10 mM rose bengal, 3 min) [N/m^2]","Attachment strength ([2]; 20 mM rose bengal, 3 min) [N/m^2]","Minimum concentration to attain strong photo-melding of human inner collagenous layer grafts ([2]; 3 min, 35 mW light) [mM]",Concentration resulting in photo-melding of exposed human inner collagenous layers ([2]; 3 min exposure to 35 mW of light at 40 millimeters),"Stability of photo-melded grafts under continuous traction ([2]; 72 hours of observation at 37° C., 0.21 mN constant traction)","PRC, CC and RPE cell viability immediately after photo-melding procedure ([3]; 1.5 mM rose bengal)","PRC, CC and RPE cell viability immediately after photo-melding procedure ([3]; 10 mM rose bengal)","PRC, CC and RPE cell viability after photo-melding and ambient light exposure (PRC, CC and RPE cells)",Concentration at which collagen crosslinking reached its maximum [4] [mM]
O=CC(O)CO (stereo not shown) [glyceraldehyde],66.1±6.0,–,–,–,–,–,–,–,–,–,–,–
"O=C([O-])c1c(Cl)c(Cl)c(Cl)c(Cl)c1-c1c2cc(I)c(=O)c(I)c-2oc2c(I)c([O-])c(I)cc12.[Na+].[Na+] [rose bengal, tetratodotetrachioro fluorescein disodium salt]",75.6±5.8,14.1,14.1,5.7,2.83,1.5,above 0.1 mM,remained attached,no adverse side effect,no adverse side effect,did not effect the viability,1.5

# Reference: patent publication US20100028407A1, “LAYERED BIO-ADHESIVE COMPOSITIONS AND USES THEREOF” (UNIVERSITY OF LOUISVILLE RESEARCH FOUNDATION, INC., priority 2006, published 2010)
